Ends that are not written are not given here.
Assays:
human cells = settings: in vitro, HLA-A*2402, Non-patent Document 12; cited from earlier work
[1] = system: B-LCL cells pulsed with the same WT1 peptide (BLCL-Ps)
Description: Peripheral blood mononuclear cells (PBMCs) were separated by Ficoll-Hypaque gradient density centrifugation method from peripheral blood that had been collected from an HLA-A*3303-positive healthy donor (HLA-A*3303/0207). The PBMCs were then seeded to a 24-well cell culture plate at the density of about 1×10^7 in RPMI 1640 medium containing 10% FCS, and a culture supernatant of B95-8 cells (cells producing EB virus) were added. They were cultured at 37° C. with 5% CO2 for about 1 month. B-LCL cells transformed with EB virus, which are B-cell tumor cells, were obtained. […] B-LCL cells were pulsed by incubating them with 20 μg/ml of WT1337, WT1364, WT1367 or WT1409 for 2 hours, and irradiated with 80 Gy of radiation. The resulting B-LCL cells (hereinafter referred to as B-LCL cells pulsed with a WT1 peptide) were used as antigen-presenting cells for the following experiments.
(§1) 3×10^6 of PBMCs (HLA-A*3303/1101) were cultured in a 24-well cell culture plate in complete medium (450 RPMI, 45% AMI-V medium and 10% human AB serum) containing 20 μg/ml of WT1337, WT1364, WT1367 or WT1409 at 37° C. with 5% CO2 for 1 week to obtain responding cells. 2×10^6 of the resulting responding cells were cocultured with 1×10^6 of the B-LCL cells pulsed with the same WT1 peptide in complete medium for 1 week (first stimulation). The PBMCs were cocultured with the B-LCL cells pulsed with the WT1 peptide three more times (second to fourth stimulations) under the conditions under which 20 IU/ml (final concentration) of IL-2 was added as follows: second stimulation: two times every other day from 3 days after the initiation of stimulation; third and fourth stimulations: three times at intervals of one day from the day after the initiation of stimulation. The resulting cells were concentrated using Negative Selection Columns Gravity Feed Kit (StemSp) so that the ratio of CD8-positive T cells became about 800, and cocultured with the B-LCL cells pulsed with the WT1 peptide (fifth stimulation). […]
(§2) The cytotoxic activity of CTLs was measured using ^51Cr release assay. […] The amounts of ^51Cr released into the supernatants were measured using a liquid scintillation counter. The cytotoxic activity (%) was determined using the following formula: (^51Cr release in supernatant of sample−Spontaneous ^51Cr release)/(Maximum ^51Cr release−Spontaneous ^51Cr release)×100 wherein Spontaneous ^51Cr release is ^51Cr release observed when the target cells into which ^51Cr had been incorporated were cultured alone under the same condition, and Maximum ^51Cr release is ^51Cr release observed when the target cells into which ^51Cr had been incorporated were completely lysed using 1% Triton X-100.

[2] = system: B-LCL expressing WT1 (B-LCL-WT1)
Description: 3×10^6 of PBMCs (HLA-A*3303/1101) were cultured in a 24-well cell culture plate in complete medium (450 RPMI, 45% AMI-V medium and 10% human AB serum) containing 20 μg/ml of WT1337, WT1364, WT1367 or WT1409 at 37° C. with 5% CO2 for 1 week to obtain responding cells. 2×10^6 of the resulting responding cells were cocultured with 1×10^6 of the B-LCL cells pulsed with the same WT1 peptide in complete medium for 1 week (first stimulation). […]
as §2
The cytotoxic activity of CTLs induced with WT1367 against B-LCL cell expressing WT1 was determined using the method as described above. […]

[3] = system: human peripheral blood mononuclear cells having HLA-A*0201; settings: human PBMCs having HLA-A*0201 stimulated with peptide; Non-patent Document 11; cited from earlier work

Description for TF-1 cells: as §1, §2
The cytotoxic activity of CTLs induced with WT1364, WT1367 or WT1409 against TF-1 cells that are tumor cells expressing a WT1 gene (HLA-A*3303-positive) was determined using the method as described above. […]

Row | Sequence | cytotoxic activity (specific lysis) of CTLs induced with the peptide (TF-1 cells) | cytotoxic activity (specific lysis) of CTLs induced with the peptide [1] | other results
1 | CMTWNQMNL (listed as Homo sapiens) [WT1235] | – | – | induction of WT1-specific CTLs (human cells): WT1-specific CTLs (TAK-1) are induced
2 | FSRSDQLKR [WT1364] | have a cytotoxic activity against the cell expressing a WT1 gene exogenously | damage specifically BLCL-Ps | –
3 | LSHLQMHSR [WT1337] | – | damage specifically BLCL-Ps | –
4 | SDQLKRHQR [WT1367] | have a cytotoxic activity against the cell expressing a WT1 gene exogenously | damage specifically BLCL-Ps | cytotoxic activity (specific lysis) of CTLs induced with the peptide [2]: damage only the cell which is HLA-A*3303-positive and expresses WT1
5 | SLGEQQYSV (listed as Homo sapiens) [WH187 peptide] | – | – | induction of WT1-specific CTLs [3]: WT1-specific CTLs are induced
6 | TSEKPFSCR [WT1409] | have a cytotoxic activity against the cell expressing a WT1 gene exogenously | damage specifically BLCL-Ps | –
